Tests used:
Assay in all cases: relative viability (nuclei count vs DMSO), 5 days (fraction); higher = more cells survive
[1] = compound: Cn1cncc1[C@@](N)(c1ccc(Cl)cc1)c1ccc2c(c1)c(-c1cccc(Cl)c1)cc(=O)n2C [Tipifarnib] + N=C(N)NC(=N)NCCc1ccccc1 [Phenformin] (partner 250 µM)
Outline: (§1)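 Five library-drug doses in √10 steps were combined with a fixed anchor-drug dose, or a single drug was given alone, by pin tool to lung cancer cell lines in 1536-well plates the day after seeding. Nuclei were stained and counted after 5 days. Relative viability is the nuclei count in treated wells over that in vehicle wells, taken as the median of duplicate plates.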

[2] = compound: Cn1cncc1[C@@](N)(c1ccc(Cl)cc1)c1ccc2c(c1)c(-c1cccc(Cl)c1)cc(=O)n2C [Tipifarnib] + NC(=O)Nc1cc(-c2cccc(F)c2)sc1C(=O)N[C@H]1CCCNC1 [AZD7762] (partner 0.2 µM)
Outline: as §1

[3] = compound: Cn1cncc1[C@@](N)(c1ccc(Cl)cc1)c1ccc2c(c1)c(-c1cccc(Cl)c1)cc(=O)n2C [Tipifarnib] + Cc1nc(NC(=O)N2CCC[C@H]2C(N)=O)sc1-c1ccnc(C(C)(C)C(F)(F)F)c1 [Alpelisib] (partner 2 µM)
Outline: as §1

[4] = compound: Cn1cncc1[C@@](N)(c1ccc(Cl)cc1)c1ccc2c(c1)c(-c1cccc(Cl)c1)cc(=O)n2C [Tipifarnib] + CS(=O)(=O)N1CCN(Cc2cc3nc(-c4cccc5[nH]ncc45)nc(N4CCOCC4)c3s2)CC1 [Pictilisib] (partner 1 µM)
Outline: as §1

| Cell Line | relative viability ([1]; first compound 0.01 µM) | relative viability ([1]; first compound 0.03162 µM) | relative viability ([1]; first compound 0.1 µM) | relative viability ([1]; first compound 0.3162 µM) | relative viability ([1]; first compound 1 µM) | relative viability ([2]; first compound 0.01 µM) | relative viability ([2]; first compound 0.03162 µM) | relative viability ([2]; first compound 0.1 µM) | relative viability ([2]; first compound 0.3162 µM) | relative viability ([2]; first compound 1 µM) | relative viability ([3]; first compound 0.01 µM) | relative viability ([3]; first compound 0.03162 µM) | relative viability ([3]; first compound 0.1 µM) | relative viability ([3]; first compound 0.3162 µM) | relative viability ([3]; first compound 1 µM) | relative viability ([4]; first compound 0.01 µM) | relative viability ([4]; first compound 0.03162 µM) | relative viability ([4]; first compound 0.1 µM) | relative viability ([4]; first compound 0.3162 µM) | relative viability ([4]; first compound 1 µM) |
| --- | --- | --- | --- | --- | --- | --- | --- | --- | --- | --- | --- | --- | --- | --- | --- | --- | --- | --- | --- | --- |
| LCLC-103H | 0.326 | 0.319 | 0.275 | 0.267 | 0.295 | 0.784 | 0.76 | 0.735 | 0.713 | 0.679 | 0.949 | 0.964 | 0.924 | 0.792 | 0.768 | 0.566 | 0.606 | 0.617 | 0.491 | 0.469 |
| LK-2 | 0.471 | 0.11 | 0.428 | 0.248 | 0.184 | 0.769 | 0.357 | 0.256 | 0.17 | 0.104 | 1.21 | 1.06 | 0.827 | 0.544 | 0.639 | 0.615 | 0.5 | 0.541 | 0.305 | 0.485 |
| LOU-NH91 | 0.652 | 0.589 | 0.688 | 0.569 | 0.414 | 0.715 | 0.685 | 0.636 | 0.625 | 0.503 | 0.706 | 0.702 | 0.644 | 0.545 | 0.583 | 0.517 | 0.446 | 0.499 | 0.501 | 0.388 |
| LU99A | 0.918 | 0.623 | 0.515 | 0.404 | 0.359 | 0.277 | 0.272 | 0.255 | 0.182 | 0.224 | 0.442 | 0.36 | 0.297 | 0.261 | 0.238 | 0.29 | 0.264 | 0.219 | 0.208 | 0.193 |
| LXF-289 | 0.518 | 0.494 | 0.494 | 0.418 | 0.175 | 1.08 | 1.12 | 1.08 | 0.941 | 0.347 | 1.05 | 1.05 | 0.988 | 0.889 | 0.983 | 0.86 | 0.793 | 0.735 | 0.699 | 0.464 |
| NCI-H23 | 0.845 | 0.752 | 0.564 | 0.435 | 0.346 | 0.227 | 0.253 | 0.229 | 0.236 | 0.199 | 0.717 | 0.791 | 0.517 | 0.454 | 0.372 | 0.469 | 0.448 | 0.312 | 0.268 | 0.232 |
| NCI-H322M | 0.868 | 0.749 | 0.799 | 0.682 | 0.66 | 0.561 | 0.591 | 0.553 | 0.474 | 0.442 | 0.765 | 0.816 | 0.767 | 0.741 | 0.658 | 0.533 | 0.543 | 0.47 | 0.464 | 0.481 |
| NCI-H358 | 0.372 | 0.45 | 0.307 | 0.323 | 0.168 | 0.563 | 0.511 | 0.575 | 0.382 | 0.378 | 0.918 | 0.748 | 0.8 | 0.504 | 0.431 | 0.387 | 0.367 | 0.362 | 0.347 | 0.268 |

Reference: the supplement of paper PMC10307832
